Measurements as given in US20100048564A1, “FUSED BICYCLIC HETEROARYL DERIVATIVE” (DAIICHI SANKYO COMPANY, LIMITED, priority 2007, published 2010).
Where two headings read alike, the source gives them in different places.

How the values were obtained:
[1] = molecular target: T1, human PPARγ2 (Homo sapiens, UniProt P37231); experiment: Evaluation of PPARγ modulator activity, PPRE luciferase reporter in MG63 cells (Test Example 2); format: cell-based; conditions: for Emax: MG-63; for IC50: in the presence of Compound A, concentration representing (100−Imax)/2; for Imax (%): maximum inhibition of luciferase activity in the presence of Compound A
T1 construct: expressed in transfected cells; host or cells: human osteosarcoma cell line MG63, transiently transfected with pSG5-hPPARγ and pGV-P2-PPRE
T1 sequence (P37231 1-505): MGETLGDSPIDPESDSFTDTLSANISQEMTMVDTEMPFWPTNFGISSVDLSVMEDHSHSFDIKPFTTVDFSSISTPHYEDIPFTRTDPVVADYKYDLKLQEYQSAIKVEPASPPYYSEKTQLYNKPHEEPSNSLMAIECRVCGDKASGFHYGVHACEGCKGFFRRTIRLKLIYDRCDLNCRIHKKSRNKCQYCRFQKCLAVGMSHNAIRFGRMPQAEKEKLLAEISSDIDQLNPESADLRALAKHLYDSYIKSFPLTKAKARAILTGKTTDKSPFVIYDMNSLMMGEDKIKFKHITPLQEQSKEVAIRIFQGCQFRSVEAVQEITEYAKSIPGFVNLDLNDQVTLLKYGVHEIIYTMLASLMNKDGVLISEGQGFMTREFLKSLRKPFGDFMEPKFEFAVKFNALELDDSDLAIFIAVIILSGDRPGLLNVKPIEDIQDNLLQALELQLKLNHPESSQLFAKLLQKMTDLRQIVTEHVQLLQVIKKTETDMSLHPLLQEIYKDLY
Protocol: In FIG. 3, the luciferase activity of the positive control group is defined as 100% and the luciferase activity of the control group is defined as 0%.
Polymerase chain reaction (hereinafter “PCR”) primers were designed based on the human PPARγ2 gene sequence (GenBANK accession No. D83233). The recognition sequences for restriction enzyme BglII were added to upstream and downstream regions of a gene encoding human PPARγ2 protein, in which the recognition sequences were necessary for inserting the gene into the restriction site BamHI of the expression plasmid pSG5 (Stratagene) for the gene.
The recognition sequence for restriction enzyme NheI was added to S2 and the recognition sequence for restriction enzyme XhoI was added to AS2 for insertion into the reporter plasmid pGV-P2 (Toyo Ink Mfg. Co., Ltd.).
PCR was carried out using thermostable DNA polymerase Ex-Taq (Takara Shuzo Co., Ltd.) with a human adipose tissue-derived cDNA library (Clontech) as a template and the DNA oligomers S1 and AS1 obtained in Procedure 1 as PCR primers. […] A cycle was repeated 30 times consisting of incubation at 94° C. for one minute, incubation at 55° C. for 30 seconds and incubation at 72° C. for 30 seconds. The resulting DNA fragment of about 1500 bp was partially cleaved by restriction enzyme BglII and inserted into the restriction site BamHI of pSG5 to obtain a human PPARγ expression plasmid pSG5-hPPARγ.
A vector pGV-P2 digest was prepared by digestion with restriction enzymes NheI and XhoI and purification by 1.0% agarose gel electrophoresis. The DNA oligomers S2 and AS2 obtained in Procedure 2 were mixed, incubated in a hot water bath at 94° C. for one minute, and then incubated at 25° C. for one hour to form a double-stranded DNA with S2 and AS2 annealed. Thereafter, the terminals of the double-stranded DNA were phosphorylated using DNA polynucleotide kinase (Toyobo Co., Ltd.) and then ligated to the previously prepared pGV-P2 digest using the restriction sites NheI and XhoI to obtain a reporter plasmid pGV-P2-PPRE having a PPAR response sequence.
The gene was transiently transferred to the human osteosarcoma cell line MG63, and then cells were harvested.
Thereafter, DMSO diluted 20-fold with 10% α-MEM was added to the control group and the positive control group at 5 μl/well. 10% α-MEM was added to the test compound-added group at 95 μl/well. Thereafter, the test compound diluted to various concentrations with DMSO was diluted 20-fold with 10% α-MEM; this was added to the test compound-added group at 5 μl/well.
Thereafter, DMSO was diluted 20-fold with 10% α-MEM; this was added to the control group and the positive control group at 5 μl/well. […] Thereafter, the test compound diluted to various concentrations with DMSO was diluted 20-fold with 10% α-MEM; this was added to the test compound-added group at 5 μl/well.
The cells prepared in Procedures 6 and 7 were cultured for 24 hours and then the medium was removed. […] The mixture was left to stand at room temperature for about 10 minutes and then stirred with a micromixer (TAITEC E-36). The luciferase activity was measured using Analyst (Molecular Devices) and a dose-dependent curve was drawn.
The IC50, Imax, EC50 and Emax of the test compound to be determined are defined as follows.
Here, the concentration of the test compound representing Emax/2 is calculated as EC50. The concentration of the test compound representing (100−Imax)/2 is calculated as IC50. The IC50 and EC50 calculated in this manner were used for evaluating the PPARγ modulator activity.

[2] = system: KK mice; experiment: Hypoglycemic effect in diabetic KK mice (Test Example 1); format: in vivo; conditions: Mus musculus, po, 72 h; male KK mice, diet admixture containing 0.03% of the compound, 3 days, plasma glucose vs control group; read-out: Hypoglycemic rate (%)
Text: Six-week-old male KK mice were purchased from CLEA Japan, Inc. and then were fed until 15 to 20 weeks old to develop diabetes. The mice were individually fed during the adaptation period and the test period, and water and feed (FR2, Funabashi Farm) were freely ingested.
At the start of the experiment, after body weight measurement, blood was collected from the tail vein of the mice into a heparin-coated glass tube and centrifuged, and then plasma was separated. The glucose level in the plasma was measured by Glucoloader GXT (A&T Corp.), and individuals having a plasma glucose level of about 350 mg/dl or more were selected. The mice were grouped, each group having 3 to 4 mice, to make the average body weight and the average plasma glucose level similar. Each compound was administered to a compound group with a diet admixture containing 0.03% of the compound. A separate group in which the mice were fed only with diet was a control group.
The experiment period (drug administration period) was three days. The grouping day was the 0th day. On the 3rd day, the body weight was measured and blood was collected from the tail vein to measure the plasma glucose level.
The hypoglycemic rate was determined by the following formula.
Hypoglycemic rate=[(Control group blood glucose level−Compound-administered group blood glucose level)/Control group blood glucose level]×100

[3] = maximum luciferase activity by test compound alone, positive control (Compound A) 100%, control 0%, read-out: Emax (%)
[4] = MG63 cells, luciferase activity
[5] = test compound alone, concentration representing Emax/2, MG63 cells, luciferase activity, read-out: EC50

Row | Structure (SMILES) | Emax [1, 3] [%] | IC50 [1, 4] [nM] | Imax (%) [1] [%] | EC50 [1, 5] [nM] | inhibition in vivo at 0.03 % in diet [2] [%] | EC50 [1] [nM] | Emax [1] [%]
1 | Cc1cc(Oc2ccc3nc(COc4cccc(C(=O)O)c4)n(C)c3c2)cc(C)c1N.Cl.Cl [Example 2, 3-{[6-(4-Amino-3,5-dimethylphenoxy)-1-methyl-1H-benzimidazol-2-yl]methoxy}benzoic acid dihydrochloride] | 70 | 56.1 | −44 | 3.28 | 37 | – | –
2 | Cl.Cn1c(COc2cccc(C(=O)O)c2)nc2ccc(Oc3ccc(F)c(Cl)c3)cc21 [Example 12, 3-{[6-(3-Chloro-4-fluorophenoxy)-1-methyl-1H-benzimidazol-2-yl]methoxy}benzoic acid hydrochloride] | 42 | 40.4 | −43 | 2.34 | 30 | – | –
3 | Cl.Cn1c(COc2cccc(C(=O)O)c2)nc2ccc(Oc3ccccc3)cc21 [Example 14, 3-[(1-Methyl-6-phenoxy-1H-benzimidazol-2-yl)methoxy]benzoic acid hydrochloride] | – | – | −35 | – | 33 | 51.7 | 54

The remaining compounds from weak to strong by IC50 [1, 4], led by results:

Row | Emax [1, 3] [%] | IC50 [1, 4] [nM] | Imax (%) [1] [%] | EC50 [1, 5] [nM] | Structure (SMILES) | inhibition in vivo at 0.03 % in diet [2] [%] | EC50 [1] [nM] | Emax [1] [%]
4 | 46 | 402 | −44 | 26.4 | Cl.Cl.Cn1c(COc2cccc(C(=O)O)c2)nc2ccc(Oc3ccccc3)nc21 [Example 16, 3-[(3-Methyl-5-phenoxy-3H-imidazo[4,5-b]pyridin-2-yl)methoxy]benzoic acid dihydrochloride] | 60 | – | –
5 | 39 | 73.3 | −34 | 7.72 | Cl.Cn1c(COc2cccc(C(=O)O)c2)nc2ccc(Oc3cccc(F)c3)cc21 [Example 8, 3-{[6-(3-Fluorophenoxy)-1-methyl-1H-benzimidazol-2-yl]methoxy}benzoic acid hydrochloride] | 29 | – | –
6 | 42 | 33.2 | −50 | 2.06 | Cl.Cn1c(COc2cccc(C(=O)O)c2)nc2ccc(Oc3ccc(Cl)c(F)c3)cc21 [Example 10, 3-{[6-(4-Chloro-3-fluorophenoxy)-1-methyl-1H-benzimidazol-2-yl]methoxy}benzoic acid hydrochloride] | 35 | – | –
